Measured values published in patent US20110015225A1, “Heterocyclic compound” (Takeda Pharmaceutical Company Limited, priority 2008, published 2011).

Each compound was assayed against MCH receptor (SLC-1) (UniProt Q99705) (assay: MCH receptor antagonistic activity using GTPγS binding assay). Conditions: [35S]-GTPγS binding, membrane fractions of SLC-1 expression CHO cells, 3×10^−10 M MCH, 25° C. 1 hr; read-out: Inhibitory Activity (IC50 value: nM).
Type: biochemical, human
Protocol: Using human SLC-1 expression CHO cell clone 57 and rat SLC-1 expression CHO cell clone 44 described in WO01/82925, membrane fractions of SLC-1 expression CHO cells were prepared by the following method. In phosphate buffered saline (pH 7.4) supplemented with 5 mM EDTA (ethylenediaminetetraacetic acid) were suspended human and rat SLC-1 expression CHO cells (1×10^8) and centrifuged. Homogenate buffer (10 ml, 10 mM […], 5 mM EDTA, pH 7.5) was added to the pellets of the cells and, using Polytron Homogenizer, the mixture was homogenated. The supernatant obtained after centrifugation at 400×g for 15 min was further centrifuged at 100,000×g for 1 hr to give precipitate of the membrane fraction. The precipitate was suspended in 2 ml of an assay buffer [50 mM Tris-HCl (pH 7.5), 1 mM EDTA, 0.1% BSA (bovine serum albumin), 10 mM MgCl2, 100 mM NaCl, 1 μM GDP (guanosine 5′-diphosphate), 0.25 mM PMSF (phenylmethylsulfonyl fluoride), […]] and centrifuged at 100,000×g for 1 hr. The membrane fraction recovered as precipitate was suspended again in 20 ml of an assay buffer, and after dispensing, preserved at −80° C. and used upon thawing each time when in use.
The MCH receptor antagonistic activity of the test compound was determined as follows. The membrane fractions of SLC-1 expression CHO cells (171 μl) diluted with an assay buffer was dispensed to a polypropylene 96 well plate and 3×10^−10 M MCH (2 μl) diluted with DMSO solution, test compound solution (2 μl) diluted to various concentrations and [^35S]-Guanosine 5′-(γ-thio)triphosphate (25 μl, Daiichi Pure Chemicals Co., Ltd.) were respectively added (cellular membrane final concentration: 20 μg/ml, [^35S]-Guanosine 5′-(γ-thio)triphosphate final concentration: 0.33 nM). The reaction mixture was reacted at 25° C. for 1 hr with stirring, suction filtered with a glass filter (GF-C) and washed 3 times with a wash solution (300 μl, 50 mM Tris-HCl buffer, pH 7.5). Liquid scintillator ([…]) was added to the glass filter and the residual radioactivity was determined by a liquid scintillation counter.
Binding inhibition (%)=(radioactivity upon addition of test compound and MCH−radioactivity upon addition of DMSO solution)/(radioactivity upon addition of MCH−radioactivity upon addition of DMSO solution)×100
From the binding inhibition (%), IC50 of the test compound was calculated.

Row | SMILES | IC50 [nM]
1 | Cc1c(NC(=O)c2ccc(OCC3CC3)cc2)ccc2cc(CNCC(C)(C)CS(C)(=O)=O)cnc12 [Ex. 4, 4-(cyclopropylmethoxy)-N-[3-({[2,2-dimethyl-3-(methylsulfonyl)propyl]amino}methyl)-8-methylquinolin-7-yl]benzamide] | 2.8
2 | Cc1c(NC(=O)c2ccc(OCC3CC3)cc2)ccc2cc(CNCCNS(C)(=O)=O)cnc12 [Ex. 6, 4-(cyclopropylmethoxy)-N-{8-methyl-3-[({2-[(methylsulfonyl)amino]ethyl}amino)methyl]quinolin-7-yl}benzamide] | 4
3 | Cc1c(NC(=O)c2ccc(OCC3CC3)cc2)ccc2cc(C(C)NCCNS(C)(=O)=O)cnc12 (stereo not drawn) [Ex. 7, 4-(cyclopropylmethoxy)-N-{8-methyl-3-[1-({2-[(methylsulfonyl)amino]ethyl}amino)ethyl]quinolin-7-yl}benzamide] | 3.7
4 | Cc1c(NC(=O)c2ccc(OCC3CC3)cc2)ccc2cc(CNC3CCN(S(C)(=O)=O)CC3)cnc12 [Ex. 8, 4-(cyclopropylmethoxy)-N-[8-methyl-3-({[1-(methylsulfonyl)piperidin-4-yl]amino}methyl)quinolin-7-yl]benzamide] | 3.9
5 | Cc1c(NC(=O)c2ccc(OCC3CC3)cc2)ccc2cc(CNCCCNS(C)(=O)=O)cnc12 [Ex. 13, 4-(cyclopropylmethoxy)-N-{8-methyl-3-[({3-[(methylsulfonyl)amino]propyl}amino)methyl]quinolin-7-yl}benzamide] | 2.8
6 | Cc1c(NC(=O)c2ccc(OCC3CC3)cc2)ccc2cc(CNCC3CCN(S(C)(=O)=O)CC3)cnc12 [Ex. 14, 4-(cyclopropylmethoxy)-N-{8-methyl-3-[({[1-(methylsulfonyl)piperidin-4-yl]methyl}amino)methyl]quinolin-7-yl}benzamide] | 3
7 | Cc1c(NC(=O)c2ccc(OCC3CC3)cc2)ccc2cc(CNCC3(O)CCS(=O)(=O)CC3)cnc12 [Ex. 15, 4-(cyclopropylmethoxy)-N-[3-({[(4-hydroxy-1,1-dioxidotetrahydro-2H-thiopyran-4-yl)methyl]amino}methyl)-8-methylquinolin-7-yl]benzamide] | 5.6
8 | Cc1c(NC(=O)c2ccc(OCCC3CC3)cc2)ccc2cc(CNC3CC[S+]([O-])CC3)cnc12 (stereo not drawn) [Ex. 21, 4-(2-cyclopropylethoxy)-N-(8-methyl-3-{[(trans-1-oxidotetrahydro-2H-thiopyran-4-yl)amino]methyl}quinolin-7-yl)benzamide] | 2.7
9 | Cc1c(NC(=O)c2ccc(OCC3CC3)cc2)ccc2cc(CNCCCC[S+](C)[O-])cnc12 (stereo not drawn) [Ex. 26, 4-(cyclopropylmethoxy)-N-[8-methyl-3-({[4-(methylsulfinyl)butyl]amino}methyl)quinolin-7-yl]benzamide] | 4.6
10 | Cc1c(NC(=O)c2ccc(OCC3CC3)cc2)ccc2cc(C(C)NC3CCS(=O)(=O)CC3)cnc12 (stereo not drawn) [Ex. 28, 4-(cyclopropylmethoxy)-N-(3-{1-[(1,1-dioxidotetrahydro-2H-thiopyran-4-yl)amino]ethyl}-8-methylquinolin-7-yl)benzamide] | 4.6
11 | Cc1c(NC(=O)c2ccc(OCC3CC3)cc2)ccc2cc([C@@H](C)NC3CC[S+]([O-])CC3)cnc12 (stereo partly drawn) [Ex. 30, 4-(cyclopropylmethoxy)-N-(8-methyl-3-{(1R)-1-[cis-(1-oxidotetrahydro-2H-thiopyran-4-yl)amino]ethyl}quinolin-7-yl)benzamide] | 3.9
12 | Cc1c(NC(=O)c2ccc(OCC3CC3)cc2)ccc2cc(CNC3CCS(=O)(=O)CC3)cnc12 [Ex. 31, 4-(cyclopropylmethoxy)-N-(3-{[(1,1-dioxidotetrahydro-2H-thiopyran-4-yl)amino]methyl}-8-methylquinolin-7-yl)benzamide] | 5.1
13 | Cc1c(NC(=O)c2ccc(OCC3CC3)cc2)ccc2cc(CNC3CC[S+]([O-])CC3)cnc12 (stereo not drawn) [Ex. 32, 4-(cyclopropylmethoxy)-N-(8-methyl-3-{[(trans-1-oxidotetrahydro-2H-thiopyran-4-yl)amino]methyl}quinolin-7-yl)benzamide] | 6.5
14 | Cc1c(NC(=O)c2ccc(OCC3CC3)cc2)ccc2cc(CNC3CC[S+]([O-])CC3)cnc12 (stereo not drawn) [Ex. 33, 4-(cyclopropylmethoxy)-N-(8-methyl-3-{[(cis-1-oxidotetrahydro-2H-thiopyran-4-yl)amino]methyl}quinolin-7-yl)benzamide] | 4.1
15 | Cc1c(NC(=O)c2ccc(OCC3CC3)cc2F)ccc2cc(CNC3CCS(=O)(=O)CC3)cnc12 [Ex. 34, 4-(cyclopropylmethoxy)-N-(3-{[(1,1-dioxidotetrahydro-2H-thiopyran-4-yl)amino]methyl}-8-methylquinolin-7-yl)-2-fluorobenzamide] | 2.7
16 | Cc1c(NC(=O)c2ccc(OCC3CC3)cc2F)ccc2cc(CNC3CC[S+]([O-])CC3)cnc12 (stereo not drawn) [Ex. 35, 4-(cyclopropylmethoxy)-2-fluoro-N-(8-methyl-3-{[(trans-1-oxidotetrahydro-2H-thiopyran-4-yl)amino]methyl}quinolin-7-yl)benzamide] | 5.6
17 | Cc1c(NC(=O)c2ccc(OCC3CC3)cc2F)ccc2cc(CNC3CC[S+]([O-])CC3)cnc12 (stereo not drawn) [Ex. 36, 4-(cyclopropylmethoxy)-2-fluoro-N-(8-methyl-3-{[(cis-1-oxidotetrahydro-2H-thiopyran-4-yl)amino]methyl}quinolin-7-yl)benzamide] | 3.4

These reach a lower IC50. Values come first.

Row | IC50 [nM] | SMILES
18 | 2.3 | Cc1c(NC(=O)c2ccc(OCC3CC3)cc2)ccc2cc(CNCCCS(C)(=O)=O)cnc12 [Ex. 2, 4-(cyclopropylmethoxy)-N-[8-methyl-3-({[3-(methylsulfonyl)propyl]amino}methyl)quinolin-7-yl]benzamide]
19 | 2.2 | Cc1c(NC(=O)c2ccc(OCC3CC3)cc2)ccc2cc(C(C)NCCCS(C)(=O)=O)cnc12 (stereo not drawn) [Ex. 3, 4-(cyclopropylmethoxy)-N-[8-methyl-3-(1-{[3-(methylsulfonyl)propyl]amino}ethyl)quinolin-7-yl]benzamide]
20 | 1.8 | Cc1c(NC(=O)c2ccc(OCC3CC3)cc2)ccc2cc(CNCC3CCS(=O)(=O)CC3)cnc12 [Ex. 16, 4-(cyclopropylmethoxy)-N-[3-({[(1,1-dioxidotetrahydro-2H-thiopyran-4-yl)methyl]amino}methyl)-8-methylquinolin-7-yl]benzamide]
21 | 1.8 | Cc1c(NC(=O)c2ccc(OCCC3CC3)cc2)ccc2cc(CNC3CC[S+]([O-])CC3)cnc12 (stereo not drawn) [Ex. 22, 4-(2-cyclopropylethoxy)-N-(8-methyl-3-{[(cis-1-oxidotetrahydro-2H-thiopyran-4-yl)amino]methyl}quinolin-7-yl)benzamide]
22 | 1.6 | Cc1c(NC(=O)c2ccc(OCC3CC3)cc2)ccc2cc(CNCCCCS(C)(=O)=O)cnc12 [Ex. 27, 4-(cyclopropylmethoxy)-N-[8-methyl-3-({[4-(methylsulfonyl)butyl]amino}methyl)quinolin-7-yl]benzamide]
23 | 1.5 | Cc1c(NC(=O)c2ccc(OCCC3CC3)cc2F)ccc2cc(CNC3CCS(=O)(=O)CC3)cnc12 [Ex. 23, 4-(2-cyclopropylethoxy)-N-(3-{[(1,1-dioxidotetrahydro-2H-thiopyran-4-yl)amino]methyl}-8-methylquinolin-7-yl)-2-fluorobenzamide]
24 | 1.5 | Cc1c(NC(=O)c2ccc(OCCC3CC3)cc2F)ccc2cc(CNC3CC[S+]([O-])CC3)cnc12 (stereo not drawn) [Ex. 24, 4-(2-cyclopropylethoxy)-2-fluoro-N-(8-methyl-3-{[(trans-1-oxidotetrahydro-2H-thiopyran-4-yl)amino]methyl}quinolin-7-yl)benzamide]
25 | 1.4 | Cc1c(NC(=O)c2ccc(OCCC3CC3)cc2)ccc2cc(CNC3CCS(=O)(=O)CC3)cnc12 [Ex. 20, 4-(2-cyclopropylethoxy)-N-(3-{[(1,1-dioxidotetrahydro-2H-thiopyran-4-yl)amino]methyl}-8-methylquinolin-7-yl)benzamide]
26 | 1.2 | Cc1c(NC(=O)c2ccc(OCCC3CC3)cc2F)ccc2cc(CNC3CC[S+]([O-])CC3)cnc12 (stereo not drawn) [Ex. 25, 4-(2-cyclopropylethoxy)-2-fluoro-N-(8-methyl-3-{[cis-1-oxidotetrahydro-2H-thiopyran-4-yl)amino]methyl}quinolin-7-yl)benzamide]
27 | 1.1 | Cc1c(NC(=O)c2ccc(OCCC3CC3)cc2)ccc2cc(CNCCCS(C)(=O)=O)cnc12 [Ex. 18, 4-(2-cyclopropylethoxy)-N-[8-methyl-3-({[3-(methylsulfonyl)propyl]amino}methyl)quinolin-7-yl]benzamide]
